Test results from patent US11730742B2, “Pharmaceutical use of thiophene [3,2-d] pyrimidine-4-ketone compound” (SHANGHAI INSTITUTE OF MATERIA MEDICA, CHINESE ACADEMY OF …, priority 2018, dated 2023).
“Also recorded” adds a separate entry of the source.

How the values were obtained:
[1] = system: CCl4-induced liver fibrosis model mice; assay: CCl4-induced liver fibrosis model mice, multiple doses, comparison with sitagliptin (Example 6); format: in vivo; conditions: oral gavage twice a day, 6 weeks
Procedure: In this experiment, CCl4-induced liver fibrosis model mice were used to investigate the effect of long-term oral administration of compound DC291407 under multiple doses on liver fibrosis in the model mice, and comparison was conducted with the same dose of sitagliptin.
Animal experiment: Male C57BL/6j mice were injected intraperitoneally with 2 mL/kg, 10% CCl4 (dissolved in olive oil) three times a week to induce liver fibrosis model. Two weeks after modeling, the blood was taken from the retro-ocular venous plexus of the mice, and serum ALT and AST indexes were detected. According to ALT, AST, body weight and other indexes, the mice were randomly divided into 8 groups with 10 mice in each group. There were the models control group (vehicle), DC291407 low-dose group (6 mg/kg), DC291407 middle-dose group (20 mg/kg), DC291407 high-dose group (60 mg/kg), sitagliptin low-dose group (6 mg/kg), Sitagliptin middle-dose group (20 mg/kg), sitagliptin high-dose group (60 mg/kg) and system positive compound OCA group (20 mg/kg). The mice were administered by oral gavage. The OCA group was administered once a day, and the other groups were administered twice a day. During the administration period, the animals' food intake and body weight were monitored. After 3 weeks of administration, the blood was taken from the retro-ocular venous plexus of the mice, and serum ALT and AST indexes were detected. After 6 weeks of administration, the blood was taken from the retro-ocular venous plexus of the mice and then the mice were killed by dislocation. The liver was taken and weighed, part of the liver was fixed with 4% paraformaldehyde, and part of the liver was frozen at −80° C. During the whole experiment, another 10 mice in the same cage were injected intraperitoneally with the same dose of olive oil as a normal control group (WT). This experiment reflected whether the compound had the effect of relieving liver fibrosis by detecting the levels of liver function indexes ALT and AST in serum, the content of hydroxyproline (a characteristic amino acid of collagen) in the liver, and liver pathological changes (Sirius scarlet staining) and the like.

[2] = system: NAFLD model of ob/ob mice induced by high-fat diet; assay: NAFLD model of ob/ob mice induced by high-fat diet (Example 5); format: in vivo; conditions: 8 weeks
Procedure: In this experiment, the NAFLD model of ob/ob mice induced by high-fat diet was used to investigate the treatment effect of long-term oral administration of compound DC291407 on NAFLD.
Animal experiment: ob/ob obese mice were divided into 3 groups according to random blood glucose, random body weight, fasting blood glucose, and fasting body weight at the 8th week of age, with 9 mice in each group. There were the model control group (vehicle) and the DC291407 group (20 mg/kg), the positive compound Alogliptin group (20 mg/kg), respectively and mice were administered by oral gavage, twice a day. A group of 6 normal mice in the same cage was set up as a normal control group (WT). Except for the WT group, they were fed with normal feed, and the rest groups were fed with high-fat feed. The administration was continued for 8 weeks. During the administration, the animal's food intake and body weight were monitored. After the last administration, the animals were fasted for 6 hours and allowed to drink water freely. Then the body weight was measured, the blood was collected from the retro-ocular venous plexus, and liver was dissected. Part of the liver was placed in 4% paraformaldehyde, and the rest was stored in a refrigerator at −80° C. This experiment reflected whether the compound had the treating effect on NAFLD by detecting the levels of liver function indexes ALT and AST in the serum, the contents of TC and TG in the liver, the NAS score of liver pathology (HE staining) and the like.

[3] = system: CCl4 induced liver fibrosis model mice; assay: CCl4 induced liver fibrosis model mice, long-term oral administration (Example 4); format: in vivo; conditions: for serum ALT level / serum AST level: 20 and 60 mg/kg oral gavage twice a day
Procedure: In this experiment, CCl4 induced liver fibrosis model mice were used to investigate the effect of long-term oral administration of compound DC291407 on liver fibrosis in the model mice.
Animal experiment: Male C57BL/6j mice were injected intraperitoneally with 2 mL/kg, 10% CCl4 (dissolved in olive oil) three times a week to induce liver fibrosis model. Two weeks after modeling, the blood was taken from the retro-ocular venous plexus of the mice, and serum ALT and AST indexes were detected. According to ALT, AST, body weight and other indexes, the mice were randomly divided into 5 groups, each with 10 mice. There were the model control group (vehicle), DC291407 low-dose group (20 mg/kg), DC291407 high-dose group (60 mg/kg), positive compound OCA low-dose group (20 mg/kg), OCA high-dose group (40 mg/kg), respectively, and mice were administered by oral gavage. DC291407 was administered twice a day, and the other groups were administered once a day. During the administration period, the animals' food intake and body weight were monitored. After 3 weeks of administration, the blood was taken from the retro-ocular venous plexus of the mice, and serum ALT and AST indexes were detected. After 6 weeks of administration, the blood was taken from the retro-ocular venous plexus of the mice and then the mice were killed by dislocation. The liver was taken and weighed, part of the liver was fixed with 4% paraformaldehyde, and part of the liver was frozen at −80° C. During the whole experiment, another 10 mice in the same cage were injected intraperitoneally with the same dose of olive oil as a normal control group (WT). This experiment reflected whether the compound had the effect of relieving liver fibrosis by detecting the levels of liver function indexes ALT and AST in serum, the expression of α-SMA and Col1α1 gene levels in the liver, the content of hydroxyproline (a characteristic amino acid of collagen) in the liver, and liver pathological changes (Sirius scarlet staining) and the like.

[4] = system: Human hepatic stellate cell line LX-2; assay: Inhibition of TGF-β-induced hepatic stellate cell activation (α-SMA, fibronectin by Western Blot); format: cell-based; conditions: LX-2, 10 ng/mL TGF-β plus compound for 24 hours; for inhibition of the activation of hepatic stellate cells HSC: α-SMA and fibronectin by Western Blot
Source text: Human hepatic stellate cell line LX-2 was used in cell function experiments. […] By comparing the expression levels of extracellular matrix in the TGF-β group and the cell group in which TGF-β and the compound to be tested were both added at the same time, the efficacy of the compound in alleviating liver fibrosis through hepatic stellate cells was characterized.
The cell experiment procedure was as follows. The human hepatic stellate cell line LX-2 was selected and inoculated into the treated 24-well plate at 7.5×10^4/well. After the cells were adhered overnight and they were subjected to starvation treatment for 12 hours, the cells were treated with 10 ng/mL TGF-β and the corresponding test compound for 24 hours and then protein samples were collected. The expression of extracellular matrix represented by α-smooth muscle myofilament (α-SMA) and fibronectin was detected by Western Blot.

[5] = 20 mg/kg oral gavage twice a day
[6] = after 3 weeks of administration
[7] = after 6 weeks of administration

N[C@@H](CC(=O)N1CCn2c(nnc2C(F)(F)F)C1)Cc1cc(F)c(F)cc1F [sitagliptin, reference compound]
ALT level in serum ([1]; high-dose group 60 mg/kg): significantly reduced | AST level in serum ([1]; high-dose group 60 mg/kg): significantly reduced | ALT level in serum ([1]; low-dose group 6 mg/kg): no effect | AST level in serum ([1]; low-dose group 6 mg/kg): no effect | collagen content in the liver (Sirius scarlet stained sections, quantitative analysis) ([1]; low-dose group 6 mg/kg): significantly reduce the collagen content in the liver | AST level in serum ([1]; middle-dose group 20 mg/kg): significantly reduced

COC(=O)c1cc2nc(N3CCC[C@@H](N)C3)n(Cc3ccccc3C#N)c(=O)c2s1 [DC291407, (R)-methyl-2-(3-aminopiperidin-1-yl)-3-(2-cyanobenzyl)-4-carbonyl-3,4-dihydrothieno[3,2-d]pyrimidine-6 carboxylic acid]
effect on serum ALT, AST and liver TG compared with alogliptin ([2]; 20 mg/kg each, twice a day): equivalent to that of alogliptin | effect on steatosis compared with alogliptin ([2]; 20 mg/kg each, twice a day): better than that of alogliptin | overall improvement effect on NAS score compared with alogliptin ([2]; 20 mg/kg each, twice a day): equivalent to that of alogliptin | content of TG in liver tissue [2, 5]: significantly reduce | level of ALT in serum [2, 5]: significantly reduce | level of AST in serum [2, 5]: significantly reduce | lobular inflammation (NAS score, HE stained liver sections) [2, 5]: a certain alleviating effect | steatosis (NAS score, HE stained liver sections) [2, 5]: improve steatosis | ALT level in serum ([1]; high-dose group 60 mg/kg): significantly reduce | collagen content in the liver (Sirius scarlet stained sections, quantitative analysis) ([1]; high-dose group 60 mg/kg): reduce the collagen content in the liver without dose dependence | ALT level in serum ([1]; low-dose group 6 mg/kg): significantly reduce | AST level in serum ([1]; low-dose group 6 mg/kg): significantly reduce | collagen content in the liver (Sirius scarlet stained sections, quantitative analysis) ([1]; low-dose group 6 mg/kg): reduce the collagen content in the liver without dose dependence | content of hydroxyproline in liver tissues ([1]; low-dose group 6 mg/kg): reduced the content of hydroxyproline in liver tissues without statistics significance | ALT level in serum ([1]; middle-dose group 20 mg/kg): significantly reduce | AST level in serum ([1]; middle-dose group 20 mg/kg): significantly reduce | collagen content in the liver (Sirius scarlet stained sections, quantitative analysis) ([1]; middle-dose group 20 mg/kg): reduce the collagen content in the liver without dose dependence | serum ALT level [3, 6]: no decrease | serum AST level [3, 6]: no decrease | collagen content in the liver (Sirius scarlet stained pathological sections, quantitative analysis) [3, 7]: reduce the collagen content in the liver without statistical difference | content of hydroxyproline in liver tissues [3, 7]: reduced | expression of Col1α1 mRNA in liver tissues [3, 7]: significantly down-regulated | expression of α-SMA mRNA in liver tissues [3, 7]: significantly down-regulated | serum ALT level [3, 7]: significantly reduced | serum AST level [3, 7]: significantly reduced | inhibitory activity on HSC activation compared with positive control Alogliptin [4]: better than that of the positive control Alogliptin | inhibition of the activation of hepatic stellate cells HSC [4]: concentration-dependently inhibited; also recorded: had an inhibitory effect

N#Cc1ccccc1Cn1c(N2CCC[C@@H](N)C2)nc2cc(C(=O)O)sc2c1=O [DC291410, (R)-2-(3-aminopiperidin-1-yl)-3-(2-cyanobenzyl)-4-carbonyl-3,4-dihydrothieno[3,2-d]pyrimidine-6 carboxylic acid]
inhibitory activity on HSC activation compared with positive control Alogliptin [4]: better than that of the positive control Alogliptin | inhibition of the activation of hepatic stellate cells HSC [4]: concentration-dependently inhibited
